In PubChem BioAssay (NCI):
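Dose response: 5 concentrations. Exposure: 48 h. Format: 96-well plates. Endpoint: linear interpolation; highest concentration if not reached. TGI: total growth inhibition.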

What was measured:
Experiment in all cases: inhibition of tumour cell growth, NCI panel, 48 h
786-0 renal = test system: 786-0 renal
A498 renal = test system: A498 renal
A549 NSCLC = test system: A549 NSCLC
ACHN renal = test system: ACHN renal
CAKI-1 renal = test system: CAKI-1 renal
CCRF-CEM leukemia = test system: CCRF-CEM leukemia
COLO 205 colon = test system: COLO 205 colon
DLD-1 colon = test system: DLD-1 colon
DMS 114 small cell lung = test system: DMS 114 small cell lung
DMS 273 small cell lung = test system: DMS 273 small cell lung
EKVX NSCLC = test system: EKVX NSCLC
HCC-2998 colon = test system: HCC-2998 colon
HCT-15 colon = test system: HCT-15 colon
HL-60(TB) leukemia = test system: HL-60(TB) leukemia
HT29 colon = test system: HT29 colon
IGROV1 ovarian = test system: IGROV1 ovarian
K-562 leukemia = test system: K-562 leukemia
KM12 colon = test system: KM12 colon
KM20L2 colon = test system: KM20L2 colon
LOX IMVI melanoma = test system: LOX IMVI melanoma
LXFL 529 NSCLC = test system: LXFL 529 NSCLC
M14 melanoma = test system: M14 melanoma
MALME-3M melanoma = test system: MALME-3M melanoma
MOLT-4 leukemia = test system: MOLT-4 leukemia
NCI-H23 lung = test system: NCI-H23 lung
NCI-H460 lung = test system: NCI-H460 lung
NCI-H522 lung = test system: NCI-H522 lung
OVCAR-4 ovarian = test system: OVCAR-4 ovarian
OVCAR-5 ovarian = test system: OVCAR-5 ovarian
OVCAR-8 ovarian = test system: OVCAR-8 ovarian
RPMI-8226 leukemia = test system: RPMI-8226 leukemia
RXF 393 renal = test system: RXF 393 renal
RXF-631 renal = test system: RXF-631 renal
SF-268 CNS = test system: SF-268 CNS
SF-295 CNS = test system: SF-295 CNS
SF-539 CNS = test system: SF-539 CNS
SK-MEL-2 melanoma = test system: SK-MEL-2 melanoma
SK-MEL-28 melanoma = test system: SK-MEL-28 melanoma
SK-MEL-5 melanoma = test system: SK-MEL-5 melanoma
SK-OV-3 ovarian = test system: SK-OV-3 ovarian
SN12C renal = test system: SN12C renal
SNB-19 CNS = test system: SNB-19 CNS
SNB-75 CNS = test system: SNB-75 CNS
SNB-78 CNS = test system: SNB-78 CNS
SW-620 colon = test system: SW-620 colon
TK-10 renal = test system: TK-10 renal
U251 CNS = test system: U251 CNS
UACC-257 melanoma = test system: UACC-257 melanoma
UACC-62 melanoma = test system: UACC-62 melanoma
UO-31 renal = test system: UO-31 renal
XF 498 CNS = test system: XF 498 CNS
HCT-116 colon = test system: HCT-116 colon
HOP-18 NSCLC = test system: HOP-18 NSCLC
HOP-62 NSCLC = test system: HOP-62 NSCLC
HOP-92 NSCLC = test system: HOP-92 NSCLC
M19-MEL melanoma = test system: M19-MEL melanoma
NCI-H226 lung = test system: NCI-H226 lung
OVCAR-3 ovarian = test system: OVCAR-3 ovarian
SR leukemia = test system: SR leukemia

COC(=O)C1(c2ccc(OC)cc2)NC(c2ccccc2)C2C(=O)N(c3ccc(OC)cc3)C(=O)C21 (stereo not given)
TGI (786-0 renal): > 100 µM | TGI (A498 renal): > 100 µM | TGI (A549 NSCLC): > 100 µM | TGI (ACHN renal): > 100 µM | TGI (CAKI-1 renal): > 100 µM | TGI (CCRF-CEM leukemia): > 100 µM | TGI (COLO 205 colon): > 100 µM | TGI (DLD-1 colon): > 100 µM | TGI (DMS 114 small cell lung): > 100 µM | TGI (DMS 273 small cell lung): > 100 µM | TGI (EKVX NSCLC): > 100 µM | TGI (HCC-2998 colon): > 100 µM | TGI (HCT-15 colon): > 100 µM | TGI (HL-60(TB) leukemia): > 100 µM | TGI (HT29 colon): > 100 µM | TGI (IGROV1 ovarian): > 100 µM | TGI (K-562 leukemia): > 100 µM | TGI (KM12 colon): > 100 µM | TGI (KM20L2 colon): > 100 µM | TGI (LOX IMVI melanoma): > 100 µM | TGI (LXFL 529 NSCLC): > 100 µM | TGI (M14 melanoma): > 100 µM | TGI (MALME-3M melanoma): > 100 µM | TGI (MOLT-4 leukemia): > 100 µM | TGI (NCI-H23 lung): > 100 µM | TGI (NCI-H460 lung): > 100 µM | TGI (NCI-H522 lung): > 100 µM | TGI (OVCAR-4 ovarian): > 100 µM | TGI (OVCAR-5 ovarian): > 100 µM | TGI (OVCAR-8 ovarian): > 100 µM | TGI (RPMI-8226 leukemia): > 100 µM | TGI (RXF 393 renal): > 100 µM | TGI (RXF-631 renal): > 100 µM | TGI (SF-268 CNS): > 100 µM | TGI (SF-295 CNS): > 100 µM | TGI (SF-539 CNS): > 100 µM | TGI (SK-MEL-2 melanoma): > 100 µM | TGI (SK-MEL-28 melanoma): > 100 µM | TGI (SK-MEL-5 melanoma): > 100 µM | TGI (SK-OV-3 ovarian): > 100 µM | TGI (SN12C renal): > 100 µM | TGI (SNB-19 CNS): > 100 µM | TGI (SNB-75 CNS): > 100 µM | TGI (SNB-78 CNS): > 100 µM | TGI (SW-620 colon): > 100 µM | TGI (TK-10 renal): > 100 µM | TGI (U251 CNS): > 100 µM | TGI (UACC-257 melanoma): > 100 µM | TGI (UACC-62 melanoma): > 100 µM | TGI (UO-31 renal): > 100 µM | TGI (XF 498 CNS): > 100 µM

CC(C)c1cccc(C(C)C)c1NC(=S)Nc1ccccc1
TGI (A498 renal): > 100 µM | TGI (A549 NSCLC): > 100 µM | TGI (ACHN renal): > 100 µM | TGI (CCRF-CEM leukemia): > 100 µM | TGI (COLO 205 colon): > 100 µM | TGI (DLD-1 colon): > 100 µM | TGI (DMS 114 small cell lung): > 100 µM | TGI (DMS 273 small cell lung): > 100 µM | TGI (EKVX NSCLC): > 100 µM | TGI (HCC-2998 colon): > 100 µM | TGI (HCT-116 colon): > 100 µM | TGI (HCT-15 colon): > 100 µM | TGI (HL-60(TB) leukemia): 32.4 µM | TGI (HOP-18 NSCLC): > 100 µM | TGI (HOP-62 NSCLC): > 100 µM | TGI (HOP-92 NSCLC): > 100 µM | TGI (HT29 colon): > 100 µM | TGI (IGROV1 ovarian): > 100 µM | TGI (K-562 leukemia): > 100 µM | TGI (KM12 colon): > 100 µM | TGI (KM20L2 colon): > 100 µM | TGI (LOX IMVI melanoma): > 100 µM | TGI (LXFL 529 NSCLC): > 100 µM | TGI (M14 melanoma): > 100 µM | TGI (M19-MEL melanoma): > 100 µM | TGI (MALME-3M melanoma): > 100 µM | TGI (MOLT-4 leukemia): > 100 µM | TGI (NCI-H226 lung): > 100 µM | TGI (NCI-H23 lung): > 100 µM | TGI (NCI-H460 lung): > 100 µM | TGI (OVCAR-3 ovarian): > 100 µM | TGI (OVCAR-4 ovarian): > 100 µM | TGI (OVCAR-5 ovarian): > 100 µM | TGI (OVCAR-8 ovarian): > 100 µM | TGI (RPMI-8226 leukemia): > 100 µM | TGI (RXF 393 renal): > 100 µM | TGI (RXF-631 renal): > 100 µM | TGI (SF-268 CNS): > 100 µM | TGI (SF-295 CNS): > 100 µM | TGI (SF-539 CNS): > 100 µM | TGI (SK-MEL-2 melanoma): > 100 µM | TGI (SK-MEL-28 melanoma): > 100 µM | TGI (SK-MEL-5 melanoma): > 100 µM | TGI (SK-OV-3 ovarian): > 100 µM | TGI (SN12C renal): > 100 µM | TGI (SNB-19 CNS): > 100 µM | TGI (SNB-75 CNS): > 100 µM | TGI (SNB-78 CNS): > 100 µM | TGI (SR leukemia): > 100 µM | TGI (SW-620 colon): > 100 µM | TGI (TK-10 renal): > 100 µM | TGI (U251 CNS): > 100 µM | TGI (UACC-257 melanoma): > 100 µM | TGI (UACC-62 melanoma): > 100 µM | TGI (UO-31 renal): > 100 µM

COC1C2c3ccccc3C(C#N)(Cc3ccc4c(c32)OCO4)N1C(=O)c1ccccc1 (stereo not given)
TGI (786-0 renal): > 100 µM | TGI (ACHN renal): > 100 µM | TGI (CCRF-CEM leukemia): > 100 µM | TGI (COLO 205 colon): 82.6 µM | TGI (DLD-1 colon): > 100 µM | TGI (DMS 114 small cell lung): > 100 µM | TGI (DMS 273 small cell lung): 98.3 µM | TGI (EKVX NSCLC): > 100 µM | TGI (HCC-2998 colon): > 100 µM | TGI (HCT-116 colon): > 100 µM | TGI (HCT-15 colon): > 100 µM | TGI (HL-60(TB) leukemia): > 100 µM | TGI (HOP-18 NSCLC): > 100 µM | TGI (HOP-62 NSCLC): > 100 µM | TGI (HOP-92 NSCLC): > 100 µM | TGI (HT29 colon): > 100 µM | TGI (IGROV1 ovarian): > 100 µM | TGI (K-562 leukemia): > 100 µM | TGI (KM12 colon): > 100 µM | TGI (KM20L2 colon): > 100 µM | TGI (LOX IMVI melanoma): > 100 µM | TGI (LXFL 529 NSCLC): > 100 µM | TGI (M14 melanoma): > 100 µM | TGI (MALME-3M melanoma): > 100 µM | TGI (MOLT-4 leukemia): > 100 µM | TGI (NCI-H226 lung): 85.9 µM | TGI (NCI-H23 lung): > 100 µM | TGI (NCI-H460 lung): > 100 µM | TGI (NCI-H522 lung): > 100 µM | TGI (OVCAR-3 ovarian): > 100 µM | TGI (OVCAR-5 ovarian): > 100 µM | TGI (OVCAR-8 ovarian): > 100 µM | TGI (RPMI-8226 leukemia): > 100 µM | TGI (RXF 393 renal): > 100 µM | TGI (RXF-631 renal): > 100 µM | TGI (SF-268 CNS): > 100 µM | TGI (SF-295 CNS): > 100 µM | TGI (SF-539 CNS): > 100 µM | TGI (SK-MEL-2 melanoma): > 100 µM | TGI (SK-MEL-28 melanoma): > 100 µM | TGI (SK-MEL-5 melanoma): 31.5 µM | TGI (SK-OV-3 ovarian): > 100 µM | TGI (SN12C renal): > 100 µM | TGI (SNB-19 CNS): > 100 µM | TGI (SNB-75 CNS): > 100 µM | TGI (SNB-78 CNS): > 100 µM | TGI (SR leukemia): > 100 µM | TGI (SW-620 colon): > 100 µM | TGI (TK-10 renal): > 100 µM | TGI (U251 CNS): > 100 µM | TGI (UACC-257 melanoma): > 100 µM | TGI (UACC-62 melanoma): > 100 µM | TGI (UO-31 renal): > 100 µM | TGI (XF 498 CNS): 98.1 µM
